Experimental data published in patent US8247211B2, “Glycopeptide antibiotics” (American Cyanamid Company, priority 2001, dated 2012).
≈ marks a conversion by molar mass, not a printed value.

Legend:
Enterococcus sp. = assay: In vitro antibacterial evaluation: minimum inhibitory concentration (MIC), broth dilution method; assay type: cell-based; conditions: 18 hours at 35° C.
In short: (§1)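 Broth dilution per NCCLS M7-A2 in Muller-Hinton II […], inoculum 5×10^5 CFU/mL, antibiotic tested over 64-0.06 μg/mL. MIC is taken as the lowest concentration that inhibits growth. Panel includes recent clinical isolates resistant to methicillin, penicillin and/or vancomycin.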

Escherichia coli = assay: as above; assay type: cell-based; conditions: 18 hours at 35° C.
In short: as §1

Staphylococcus sp. = assay: as above; assay type: cell-based; conditions: 18 hours at 35° C.
In short: as §1

Streptococcus sp. = assay: as above; assay type: cell-based; conditions: 18 hours at 35° C.
In short: as §1

[1] = tested on: Staphylococcus aureus-SMITH (GC 4543); assay: Acute lethal infection in mice (ED50); assay type: in vivo; conditions: female CD-1 mice, intraperitoneal challenge, intravenous dose 30 min. after infection, 7 day survival ratios
In short: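 Bacteria suspended in Trypticase Soy Broth or hog gastric mucin are injected intraperitoneally into female CD-1 mice at a dose killing untreated animals within 24-48 hr. Thirty minutes later, test agent is administered intravenously. Survival at day 7 is scored.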

[2] = Anatomic pathology (heart and kidney histopathology) in mice; assay type: in vivo, CD-1 mice; conditions: 20 mg/kg intravenously daily for 9 days, microscopic histopathology on day 10
In short: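 Histopathology on H&E-stained, paraffin-embedded sections, subjectively scored (slight, mild, moderate, marked, severe) relative to untreated controls. Dosing: glycopeptide antibiotics 20 mg/kg intravenously once daily ×9 days in 20-day-old CD-1 mice, n=5 per group including vehicle.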

[3] = Enterococcus faecalis (ATCC 29212)
[4] = Enterococcus faecalis (GC 2242)
[5] = Enterococcus faecalis (GC 2691)
[6] = Enterococcus faecalis (GC 3059)
[7] = Enterococcus faecalis (GC 4552)
[8] = Enterococcus faecalis (GC 4553)
[9] = Enterococcus faecalis (GC 4554)
[10] = Enterococcus faecalis (GC 6189)
[11] = broth dilution, inoculum 5×10^5 CFU/mL
[12] = Streptococcus pneumoniae (ATCC 6301)
[13] = Streptococcus pneumoniae (GC 1894)
[14] = Streptococcus pneumoniae (GC 4565)

COc1ccc2cc(COC3C(CO)OC(OC4C(CO)OC(Oc5ccc(CC6NC(=O)C(C(C)c7ccccc7)NC(=O)CNC(=O)C(CO)NC(=O)C(CC7CNC(=N)N7C7OC(CO)C(O)C(O)C7O)NC(=O)C(CC7CNC(=N)N7)NC6=O)cc5)C(O)C4O)C(O)C3O)ccc2c1 (stereo not drawn) [Example 245a, Cyclo[3-(2-iminoimidazolidin-4-yl)alanyl-3-(3-hexopyranosyl-2-iminoimidazolidin-4-yl)-alanylserylglycyl-β-methylphenylalanyl-O-[4-O-[4-O-[(6-methoxy-2-naphthyl)methyl]-hexopyranosyl]hexopyranosyl]tyrosyl]]
MIC Enterococcus avium (GC 4558) (Enterococcus sp.; Enterococcus avium (GC 4558)): 4 µg/mL (≈ 2.79 µM)
MIC Enterococcus faecalis (ATCC 29212) (Enterococcus sp.; [3]): 8 µg/mL (≈ 5.58 µM)
MIC Enterococcus faecalis (GC 2242) (Enterococcus sp.; [4]): 4 µg/mL (≈ 2.79 µM)
MIC Enterococcus faecalis (GC 2691) (Enterococcus sp.; [5]): 8 µg/mL (≈ 5.58 µM)
MIC Enterococcus faecalis (GC 3059) (Enterococcus sp.; [6]): 4 µg/mL (≈ 2.79 µM)
MIC Enterococcus faecalis (GC 4552) (Enterococcus sp.; [7]): 8 µg/mL (≈ 5.58 µM)
MIC Enterococcus faecalis (GC 4553) (Enterococcus sp.; [8]): 4 µg/mL (≈ 2.79 µM)
MIC Enterococcus faecalis (GC 4554) (Enterococcus sp.; [9]): 8 µg/mL (≈ 5.58 µM)
MIC Enterococcus faecalis (GC 6189) (Enterococcus sp.; [10]): 8 µg/mL (≈ 5.58 µM)
MIC Enterococcus faecium (GC 2243) (Enterococcus sp.; Enterococcus faecium (GC 2243)): 4 µg/mL (≈ 2.79 µM)
MIC Enterococcus faecium (GC 4556) (Enterococcus sp.; Enterococcus faecium (GC 4556)): 4 µg/mL (≈ 2.79 µM)
MIC Enterococcus faecium (GC 4557) (Enterococcus sp.; Enterococcus faecium (GC 4557)): 2 µg/mL (≈ 1.4 µM)
MIC Enterococcus faecalis (GC 2242) (Enterococcus sp.; [11]): 4 µg/mL (≈ 2.79 µM)
MIC Enterococcus faecalis (GC 2691) (Enterococcus sp.; [11]): 8 µg/mL (≈ 5.58 µM)
MIC Enterococcus faecalis (GC 3059) (Enterococcus sp.; [11]): 4 µg/mL (≈ 2.79 µM)
MIC Escherichia coli (ATCC 25922) (Escherichia coli): 32 µg/mL (≈ 22.3 µM)
MIC Escherichia coli (GC 4559) (Escherichia coli): 32 µg/mL (≈ 22.3 µM)
MIC Escherichia coli (GC 4560) (Escherichia coli; Escherichia coli (GC 4560)): 2 µg/mL (≈ 1.4 µM)
MIC Coagulase Negative Staphylococcus (GC 4547) (Staphylococcus sp.): 2 µg/mL (≈ 1.4 µM)
MIC Coagulase Negative Staphylococcus (GC 4548) (Staphylococcus sp.; Coagulase Negative Staphylococcus (GC 4548)): 1 µg/mL (≈ 0.698 µM)
MIC Coagulase Negative Staphylococcus (GC 4549) (Staphylococcus sp.; Coagulase Negative Staphylococcus (GC 4549)): 0.5 µg/mL (≈ 0.349 µM)
MIC Coagulase Negative Staphylococcus (GC 4551) (Staphylococcus sp.; Coagulase Negative Staphylococcus (GC 4551)): 2 µg/mL (≈ 1.4 µM)
MIC Coagulase Negative Staphylococcus (GC 6257) (Staphylococcus sp.; Coagulase Negative Staphylococcus (GC 6257)): 1 µg/mL (≈ 0.698 µM)
MIC Staphylococcus aureus (ATCC 29213) (Staphylococcus sp.): 2 µg/mL (≈ 1.4 µM)
MIC Staphylococcus aureus (GC 1131) (Staphylococcus sp.): 4 µg/mL (≈ 2.79 µM)
MIC Staphylococcus aureus (GC 3051) (Staphylococcus sp.): 2 µg/mL (≈ 1.4 µM)
MIC Staphylococcus aureus (GC 3053) (Staphylococcus sp.): 2 µg/mL (≈ 1.4 µM)
MIC Staphylococcus aureus (GC 4541) (Staphylococcus sp.): 2 µg/mL (≈ 1.4 µM)
MIC Staphylococcus aureus (GC 4542) (Staphylococcus sp.; Staphylococcus aureus (GC 4542)): 2 µg/mL (≈ 1.4 µM)
MIC Staphylococcus aureus (GC 4544) (Staphylococcus sp.): 2 µg/mL (≈ 1.4 µM)
MIC Staphylococcus aureus (GC 4545) (Staphylococcus sp.): 2 µg/mL (≈ 1.4 µM)
MIC Staphylococcus aureus-SMITH (GC 4543) (Staphylococcus sp.): 2 µg/mL (≈ 1.4 µM)
MIC Staphylococcus haemolyticus (GC 4546) (Staphylococcus sp.; Staphylococcus haemolyticus (GC 4546)): 1 µg/mL (≈ 0.698 µM)
MIC Streptococcus agalactiae (GC 4564) (Streptococcus sp.; Streptococcus agalactiae (GC 4564)): 1 µg/mL (≈ 0.698 µM)
MIC Streptococcus pneumoniae (ATCC 6301) (Streptococcus sp.; [12]): 0.5 µg/mL (≈ 0.349 µM)
MIC Streptococcus pneumoniae (GC 1894) (Streptococcus sp.; [13]): <0.12 µg/mL
MIC Streptococcus pneumoniae (GC 4565) (Streptococcus sp.; [14]): 1 µg/mL (≈ 0.698 µM)
MIC Streptococcus pyogenes (GC 4563) (Streptococcus sp.; Streptococcus pyogenes (GC 4563)): 1 µg/mL (≈ 0.698 µM)
MIC Streptococcus agalactiae (GC 4564) (Streptococcus sp.; [11]): 1 µg/mL (≈ 0.698 µM)
MIC Streptococcus pneumoniae (ATCC 6301) (Streptococcus sp.; [11]): 0.5 µg/mL (≈ 0.349 µM)
MIC Streptococcus pneumoniae (GC 1894) (Streptococcus sp.; [11]): <0.12 µg/mL
MIC Streptococcus pneumoniae (GC 4565) (Streptococcus sp.; [11]): 1 µg/mL (≈ 0.698 µM)
MIC Streptococcus pyogenes (GC 4563) (Streptococcus sp.; [11]): 1 µg/mL (≈ 0.698 µM)
median effective dose (ED50), Staphylococcus aureus-SMITH (GC 4543) [1]: 1 mg/kg
Anatomical Pathology (Day 10), Heart [2]: +
Anatomical Pathology (Day 10), Kidney [2]: +++

COc1ccc2cc(COC3C(CO)OC(OC4C(CO)OC(Oc5ccc(CC6NC(=O)C(C(C)c7ccccc7)NC(=O)CNC(=O)C(CO)NC(=O)C(C(O)C7CNC(=N)N7C7OC(CO)C(O)C(O)C7O)NC(=O)C(C(O)C7CNC(=N)N7)NC6=O)cc5)C(O)C4O)C(O)C3O)ccc2c1 (stereo not drawn) [Example 230a, Cyclo[glycyl-β-methylphenylalanyl-O-[4-O-[4-O-[(6-methoxy-2-naphthyl)methyl]hexopyranosyl]hexopyranosyl]tyrosyl-3-(2-iminoimidazolidin-4-yl)seryl-3-(3-hexopyranosyl-2-iminoimidazolidin-4-yl)serylseryl]]
MIC Enterococcus avium (GC 4558) (Enterococcus sp.; Enterococcus avium (GC 4558)): 2 to 4 µg/mL
MIC Enterococcus faecalis (ATCC 29212) (Enterococcus sp.; [3]): 2 to 4 µg/mL
MIC Enterococcus faecalis (GC 2242) (Enterococcus sp.; [4]): 2 to 4 µg/mL
MIC Enterococcus faecalis (GC 2691) (Enterococcus sp.; [5]): 2 to 4 µg/mL
MIC Enterococcus faecalis (GC 3059) (Enterococcus sp.; [6]): 2 to 4 µg/mL
MIC Enterococcus faecalis (GC 4552) (Enterococcus sp.; [7]): 2 to 4 µg/mL
MIC Enterococcus faecalis (GC 4553) (Enterococcus sp.; [8]): 2 to 4 µg/mL
MIC Enterococcus faecalis (GC 4554) (Enterococcus sp.; [9]): 2 to 4 µg/mL
MIC Enterococcus faecalis (GC 6189) (Enterococcus sp.; [10]): 1 to 4 µg/mL
MIC Enterococcus faecium (GC 2243) (Enterococcus sp.; Enterococcus faecium (GC 2243)): 2 to 4 µg/mL
MIC Enterococcus faecium (GC 4556) (Enterococcus sp.; Enterococcus faecium (GC 4556)): 2 to 4 µg/mL
MIC Enterococcus faecium (GC 4557) (Enterococcus sp.; Enterococcus faecium (GC 4557)): 1 to 2 µg/mL
MIC Enterococcus avium (GC 4558) (Enterococcus sp.; [11]): 2 to 4 µg/mL
MIC Enterococcus faecalis (ATCC 29212) (Enterococcus sp.; [11]): 2 to 4 µg/mL
MIC Enterococcus faecalis (GC 2242) (Enterococcus sp.; [11]): 2 to 4 µg/mL
MIC Enterococcus faecalis (GC 2691) (Enterococcus sp.; [11]): 2 to 4 µg/mL
MIC Enterococcus faecalis (GC 3059) (Enterococcus sp.; [11]): 2 to 4 µg/mL
MIC Enterococcus faecalis (GC 4552) (Enterococcus sp.; [11]): 2 to 4 µg/mL
MIC Enterococcus faecalis (GC 4553) (Enterococcus sp.; [11]): 2 to 4 µg/mL
MIC Enterococcus faecalis (GC 4554) (Enterococcus sp.; [11]): 2 to 4 µg/mL
MIC Enterococcus faecalis (GC 6189) (Enterococcus sp.; [11]): 1 to 4 µg/mL
MIC Enterococcus faecium (GC 2243) (Enterococcus sp.; [11]): 2 to 4 µg/mL
MIC Enterococcus faecium (GC 4556) (Enterococcus sp.; [11]): 2 to 4 µg/mL
MIC Enterococcus faecium (GC 4557) (Enterococcus sp.; [11]): 1 to 2 µg/mL
MIC Escherichia coli (ATCC 25922) (Escherichia coli): 32 µg/mL (≈ 21.8 µM)
MIC Escherichia coli (GC 4559) (Escherichia coli): 32 µg/mL (≈ 21.8 µM)
MIC Coagulase Negative Staphylococcus (GC 4547) (Staphylococcus sp.): 0.5 to 2 µg/mL
MIC Staphylococcus aureus (ATCC 29213) (Staphylococcus sp.): 1 to 2 µg/mL
MIC Staphylococcus aureus (GC 1131) (Staphylococcus sp.): 0.5 to 2 µg/mL
MIC Staphylococcus aureus (GC 3051) (Staphylococcus sp.): 1 to 2 µg/mL
MIC Staphylococcus aureus (GC 3053) (Staphylococcus sp.): 1 to 2 µg/mL
MIC Staphylococcus aureus (GC 4541) (Staphylococcus sp.): 0.5 to 2 µg/mL
MIC Staphylococcus aureus (GC 4544) (Staphylococcus sp.): 1 to 2 µg/mL
MIC Staphylococcus aureus (GC 4545) (Staphylococcus sp.): 0.5 to 1 µg/mL
MIC Staphylococcus aureus-SMITH (GC 4543) (Staphylococcus sp.): 0.5 to 2 µg/mL
MIC Streptococcus pneumoniae (ATCC 6301) (Streptococcus sp.; [12]): <0.06 µg/mL
MIC Streptococcus pneumoniae (GC 1894) (Streptococcus sp.; [13]): <0.06 µg/mL
MIC Streptococcus pneumoniae (GC 4565) (Streptococcus sp.; [14]): <0.06 µg/mL
MIC Streptococcus pneumoniae (ATCC 6301) (Streptococcus sp.; [11]): <0.06 µg/mL
MIC Streptococcus pneumoniae (GC 1894) (Streptococcus sp.; [11]): <0.06 µg/mL
MIC Streptococcus pneumoniae (GC 4565) (Streptococcus sp.; [11]): <0.06 µg/mL
median effective dose (ED50), Staphylococcus aureus-SMITH (GC 4543) [1]: 0.06 mg/kg
Anatomical Pathology (Day 10), Heart [2]: 0
Anatomical Pathology (Day 10), Kidney [2]: +
